In ChEMBL document CHEMBL4622852, “Design and synthesis of novel proline based factor XIa selective inhibitors as leads for potential new anticoagulants” (Bioorg Med Chem Lett, 2020):
Active and inactive are the calls of the source. The calls are words filed in the database; no cut-off is given here.

Experiments:
Coagulation factor XI [1] = target: T1, Coagulation factor XI (Homo sapiens, UniProt P03951); experiment: Inhibition of factor 11a (unknown origin) at 10 uM relative to control
Prothrombin = Prothrombin (Homo sapiens, UniProt P00734); experiment: Inhibition of thrombin (unknown origin)
Coagulation factor XI [2] = target: T1, Coagulation factor XI; experiment: Inhibition of factor 11a (unknown origin)
Coagulation factor IX = Coagulation factor IX (Homo sapiens, UniProt P00740); experiment: Inhibition of factor 9a (unknown origin)
Coagulation factor X = Coagulation factor X (Homo sapiens, UniProt P00742); experiment: Inhibition of factor 10a (unknown origin)
Coagulation factor VII = target: T2, Coagulation factor VII (Homo sapiens, UniProt P08709); experiment: (§1) Inhibition of factor 7a (unknown origin)
T2 sequence (P08709 whole entry): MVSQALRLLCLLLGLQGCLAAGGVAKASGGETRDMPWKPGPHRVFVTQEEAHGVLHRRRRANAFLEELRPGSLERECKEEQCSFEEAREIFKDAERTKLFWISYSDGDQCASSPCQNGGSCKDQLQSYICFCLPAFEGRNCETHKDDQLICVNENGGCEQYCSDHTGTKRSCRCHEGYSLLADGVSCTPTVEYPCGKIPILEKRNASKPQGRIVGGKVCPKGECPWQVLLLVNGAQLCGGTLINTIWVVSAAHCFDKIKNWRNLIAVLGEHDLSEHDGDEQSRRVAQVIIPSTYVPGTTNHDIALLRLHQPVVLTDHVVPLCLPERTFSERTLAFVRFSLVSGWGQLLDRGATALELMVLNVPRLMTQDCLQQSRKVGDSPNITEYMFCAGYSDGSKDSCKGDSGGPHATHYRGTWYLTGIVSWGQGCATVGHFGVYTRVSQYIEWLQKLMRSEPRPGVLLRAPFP

Coagulation factor XII = target: T3, Coagulation factor XII (Homo sapiens, UniProt P00748); experiment: Inhibition of factor 12a (unknown origin)
T3 sequence (P00748 whole entry): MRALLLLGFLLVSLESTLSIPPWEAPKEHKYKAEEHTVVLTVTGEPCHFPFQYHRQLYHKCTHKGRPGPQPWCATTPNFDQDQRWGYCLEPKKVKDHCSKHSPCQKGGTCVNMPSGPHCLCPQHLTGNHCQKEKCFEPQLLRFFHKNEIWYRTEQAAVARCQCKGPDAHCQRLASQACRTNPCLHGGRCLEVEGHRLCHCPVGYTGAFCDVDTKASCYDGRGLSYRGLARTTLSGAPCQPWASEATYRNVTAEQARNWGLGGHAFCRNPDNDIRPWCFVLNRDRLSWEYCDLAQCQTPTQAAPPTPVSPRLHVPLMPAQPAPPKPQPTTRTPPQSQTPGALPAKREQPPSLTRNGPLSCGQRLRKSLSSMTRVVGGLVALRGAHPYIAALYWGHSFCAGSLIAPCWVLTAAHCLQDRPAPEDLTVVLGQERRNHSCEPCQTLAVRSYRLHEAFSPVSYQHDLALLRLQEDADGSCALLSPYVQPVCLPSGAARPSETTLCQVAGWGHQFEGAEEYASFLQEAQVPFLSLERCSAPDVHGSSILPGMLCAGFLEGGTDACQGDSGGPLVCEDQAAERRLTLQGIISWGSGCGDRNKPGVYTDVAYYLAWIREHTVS

Trypsin = Trypsin (Homo sapiens, UniProt P07477+P07478+P35030); experiment: Inhibition of trypsin (unknown origin); assay type: protein assay
[3] = target: T4, Coagulation factor VII (Homo sapiens) (UniProt P08709); experiment: as §1
T4 sequence (whole entry): T2 sequence (P08709 whole entry)

T1 sequence (P03951 19-387 limits assumed): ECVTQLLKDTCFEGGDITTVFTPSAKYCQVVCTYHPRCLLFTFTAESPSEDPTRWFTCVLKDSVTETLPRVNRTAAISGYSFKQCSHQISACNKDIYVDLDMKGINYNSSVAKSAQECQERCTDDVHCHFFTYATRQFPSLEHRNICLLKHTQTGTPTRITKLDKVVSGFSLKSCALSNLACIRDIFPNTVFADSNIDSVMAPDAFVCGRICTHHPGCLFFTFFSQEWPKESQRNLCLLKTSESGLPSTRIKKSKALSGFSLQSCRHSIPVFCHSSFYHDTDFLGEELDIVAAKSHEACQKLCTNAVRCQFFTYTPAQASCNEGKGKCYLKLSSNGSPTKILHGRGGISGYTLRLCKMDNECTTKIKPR
T1 sequence (P03951 388-625 limits assumed): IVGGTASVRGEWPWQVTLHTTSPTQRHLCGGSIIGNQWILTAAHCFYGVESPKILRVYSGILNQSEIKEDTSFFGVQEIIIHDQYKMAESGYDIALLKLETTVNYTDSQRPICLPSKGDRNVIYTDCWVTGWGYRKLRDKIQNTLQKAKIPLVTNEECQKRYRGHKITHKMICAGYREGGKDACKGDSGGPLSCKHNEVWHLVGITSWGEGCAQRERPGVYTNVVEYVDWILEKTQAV
Chain of Coagulation factor IX (P00740 47-191 limits assumed): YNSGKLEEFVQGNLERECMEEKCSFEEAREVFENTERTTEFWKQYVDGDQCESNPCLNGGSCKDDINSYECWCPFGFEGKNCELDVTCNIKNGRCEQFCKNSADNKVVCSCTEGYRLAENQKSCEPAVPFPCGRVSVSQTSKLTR
Chain of Coagulation factor IX (P00740 227-461 limits assumed): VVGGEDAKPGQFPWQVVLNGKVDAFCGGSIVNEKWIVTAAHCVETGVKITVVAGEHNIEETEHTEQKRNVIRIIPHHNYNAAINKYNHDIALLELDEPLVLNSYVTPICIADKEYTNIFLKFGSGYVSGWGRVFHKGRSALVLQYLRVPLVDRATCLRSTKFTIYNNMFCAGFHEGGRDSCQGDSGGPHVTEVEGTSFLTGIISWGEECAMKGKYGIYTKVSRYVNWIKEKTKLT
Chain of Coagulation factor X (P00742 41-179 limits assumed): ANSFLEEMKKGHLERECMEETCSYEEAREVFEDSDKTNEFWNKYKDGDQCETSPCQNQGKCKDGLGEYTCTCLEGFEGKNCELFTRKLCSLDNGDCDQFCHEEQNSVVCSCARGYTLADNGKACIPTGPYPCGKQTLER
Chain of Coagulation factor X (P00742 235-488 limits assumed): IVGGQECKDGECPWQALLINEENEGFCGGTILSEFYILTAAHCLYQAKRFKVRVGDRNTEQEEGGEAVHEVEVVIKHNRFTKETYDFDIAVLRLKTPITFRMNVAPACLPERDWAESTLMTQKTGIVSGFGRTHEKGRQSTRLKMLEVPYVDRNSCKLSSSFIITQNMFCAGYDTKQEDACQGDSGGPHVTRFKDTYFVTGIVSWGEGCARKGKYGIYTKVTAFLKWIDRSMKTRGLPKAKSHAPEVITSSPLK

Row | SMILES | IC50 (Prothrombin) [nM] | IC50 (Coagulation factor XI [2]) [nM] | also measured
1 | Cc1cc2cc(CNC(=O)[C@@H]3CCCN3C(=O)[C@@H](CC3CCCCC3)NC3CCCCC3)ccc2c(N)n1 | – | – | inhibition (Coagulation factor XI [1]): 61%
2 | CC[C@@H](C)[C@@H](NS(=O)(=O)Cc1ccc(Cl)cc1)C(=O)N1C[C@@](C)(C#N)C[C@H]1C(=O)NCc1ccc2c(N)nccc2c1 | 43 | 10 | IC50 (Coagulation factor IX): > 30000 nM; IC50 (Coagulation factor X): 829 nM; IC50 (Coagulation factor VII): 285 nM; IC50 (Coagulation factor XII): > 20000 nM; IC50 (Trypsin): 2526 nM
3 | Nc1nccc2cc(CNC(=O)[C@@H]3CCCN3C(=O)[C@@H](CC3CCCCC3)NC3CCCCC3)ccc12 | 1 | 160 | inhibition (Coagulation factor IX): Active; inhibition (Coagulation factor X): Active; inhibition [3]: Active
4 | CC[C@@H](C)[C@@H](NC1CCCCC1)C(=O)N1C[C@](O)(CC)C[C@H]1C(=O)NCc1ccc2c(N)nccc2c1 | 92 | 22 | IC50 (Coagulation factor IX): > 10000 nM; IC50 (Coagulation factor X): 93 nM; IC50 (Coagulation factor VII): 646 nM; IC50 (Coagulation factor XII): 426 nM; IC50 (Trypsin): 410 nM
5 | CC(C)C[C@@H](NC1CCCCC1)C(=O)N1C[C@@H](C(F)(F)F)C[C@H]1C(=O)NCc1ccc2c(N)nccc2c1 | > 5000 | 76 | –
6 | CC(C)C[C@@H](NC1CCCC1)C(=O)N1CCC[C@H]1C(=O)NCc1ccc2c(N)nccc2c1 | 38 | 1380 | –
7 | CC(C)C[C@@H](NC1CCCCC1)C(=O)N1C[C@@H](O)C[C@H]1C(=O)NCc1ccc2c(N)nccc2c1 | 1000 | 100 | –
8 | CC(C)C[C@@H](NC1CCCCC1)C(=O)N1C[C@@](C)(O)C[C@H]1C(=O)NCc1ccc2c(N)nccc2c1 | – | 49 | –
9 | CC[C@@H](C)[C@@H](NC1CCCCC1)C(=O)N1CCC[C@H]1C(=O)NCc1ccc2c(N)nccc2c1 | – | 16 | –
10 | CC(C)C[C@@H](NC(C)C(F)F)C(=O)N1CCC[C@H]1C(=O)NCc1ccc2c(N)nccc2c1 (stereo partly specified) | 95 | 339 | –
11 | Nc1ncnc2cc(CNC(=O)[C@@H]3CCCN3C(=O)[C@@H](CC3CCCCC3)NC3CCCCC3)ccc12 | – | – | inhibition (Coagulation factor XI [1]): 10%
12 | CC[C@@H](C)[C@@H](NC(C)C(F)F)C(=O)N1C[C@@](C)(O)C[C@H]1C(=O)NCc1ccc2c(N)nccc2c1 (stereo partly specified) | 3630 | 77 | IC50 (Coagulation factor IX): > 10000 nM; IC50 (Coagulation factor X): 798 nM; IC50 (Coagulation factor VII): 2760 nM; IC50 (Coagulation factor XII): > 10000 nM; IC50 (Trypsin): 4034 nM
13 | CC[C@@H](C)[C@@H](NC1CCCCC1)C(=O)N1C[C@@H](O)C[C@H]1C(=O)NCc1ccc2c(N)nccc2c1 | 309 | 21 | IC50 (Coagulation factor IX): 8330 nM; IC50 (Coagulation factor X): 136 nM; IC50 (Coagulation factor VII): 993 nM; IC50 (Coagulation factor XII): 341 nM; IC50 (Trypsin): 824 nM
14 | CC[C@H](C)[C@@H](NC1CCCCC1)C(=O)N1CCC[C@H]1C(=O)NCc1ccc2c(N)nccc2c1 | – | 347 | –
15 | CC[C@@H](C)[C@@H](NS(=O)(=O)Cc1ccc(C(F)(F)F)cc1)C(=O)N1C[C@@](C)(O)C[C@H]1C(=O)NCc1ccc2c(N)nccc2c1 | 521 | 46 | IC50 (Coagulation factor IX): > 30000 nM; IC50 (Coagulation factor X): 328 nM; IC50 (Coagulation factor VII): 2780 nM; IC50 (Coagulation factor XII): > 30000 nM; IC50 (Trypsin): 2912 nM
16 | CC(C)C[C@@H](NC1CCOCC1)C(=O)N1CCC[C@H]1C(=O)NCc1ccc2c(N)nccc2c1 | 281 | 1350 | –
17 | CO[C@H]1C[C@@H](C(=O)NCc2ccc3c(N)nccc3c2)N(C(=O)[C@@H](CC(C)C)NC2CCCCC2)C1 | > 5000 | 263 | –
18 | CC(C)C[C@@H](NC1CCCCC1)C(=O)N1CC[C@H]1C(=O)NCc1ccc2c(N)nccc2c1 | 3 | 1100 | –
19 | Nc1nccc2cc(CNC(=O)[C@@H]3CCCN3C(=O)[C@H](NC3CCCCC3)C3CCOCC3)ccc12 | 2 | 224 | –

Row | SMILES | IC50 (Prothrombin) [nM] | IC50 (Coagulation factor XI [2]) [nM] | also measured
20 | CC(C)C[C@@H](NC1CCCCC1)C(=O)N1C[C@@H](F)C[C@H]1C(=O)NCc1ccc2c(N)nccc2c1 | > 5000 | 437 | –
21 | CC[C@@H](C)[C@@H](NC1CCC(F)(F)CC1)C(=O)N1C[C@](O)(CC)C[C@H]1C(=O)NCc1ccc2c(N)nccc2c1 | 1190 | 88 | IC50 (Coagulation factor IX): > 30000 nM; IC50 (Coagulation factor X): 652 nM; IC50 (Coagulation factor VII): 3800 nM; IC50 (Coagulation factor XII): > 10000 nM; IC50 (Trypsin): 2701 nM
22 | CC(C)C[C@@H](NC1CCC(C(F)(F)F)CC1)C(=O)N1CCC[C@H]1C(=O)NCc1ccc2c(N)nccc2c1 (stereo partly specified) | 174 | 490 | –
23 | CC(C)C[C@@H](NC1CCCCC1)C(=O)N1CCC[C@H]1C(=O)NCc1ccc2c(N)nccc2c1 | 5 | 60 | –
24 | Nc1nccc2cc(CNC(=O)[C@@H]3CCCN3C(=O)[C@H](NC3CCCCC3)C3CCCCC3)ccc12 | 6 | 91 | –
25 | Nc1nccc2cc(CNC(=O)[C@@H]3CCCN3C(=O)[C@@H](CC3CC3)NC3CCCCC3)ccc12 | 6 | 98 | –
26 | CC(C)C[C@@H](NC1CCC(F)(F)CC1)C(=O)N1CCC[C@H]1C(=O)NCc1ccc2c(N)nccc2c1 | 120 | 417 | –
27 | CCC[C@@H](NC1CCCCC1)C(=O)N1CCC[C@H]1C(=O)NCc1ccc2c(N)nccc2c1 | 9 | 171 | –
28 | CC(C)C[C@@H](NC1CCCCC1)C(=O)N1CCCC[C@H]1C(=O)NCc1ccc2c(N)nccc2c1 | 4 | 138 | –
29 | CC(C)CN[C@H](CC(C)C)C(=O)N1CCC[C@H]1C(=O)NCc1ccc2c(N)nccc2c1 | 37 | 2690 | –
30 | CC[C@@H](C)[C@@H](NC1CCCCC1)C(=O)N1C[C@@](C)(C#N)C[C@H]1C(=O)NCc1ccc2c(N)nccc2c1 | 289 | 28 | IC50 (Coagulation factor IX): > 10000 nM; IC50 (Coagulation factor X): 2740 nM; IC50 (Coagulation factor VII): 1130 nM; IC50 (Coagulation factor XII): 7290 nM; IC50 (Trypsin): 3371 nM
31 | CC[C@@H](C)[C@@H](NC1CCCCC1)C(=O)N1C[C@@](C)(O)C[C@H]1C(=O)NCc1ccc2c(N)nccc2c1 | 218 | 12 | IC50 (Coagulation factor IX): 7830 nM; IC50 (Coagulation factor X): 49 nM; IC50 (Coagulation factor VII): 461 nM; IC50 (Coagulation factor XII): 241 nM; IC50 (Trypsin): 547 nM
32 | CC[C@@H](C)[C@@H](NS(=O)(=O)Cc1ccc(Cl)cc1)C(=O)N1C[C@@](C)(O)C[C@H]1C(=O)NCc1ccc2c(N)nccc2c1 | 370 | 15 | IC50 (Coagulation factor IX): > 20000 nM; IC50 (Coagulation factor X): 78 nM; IC50 (Coagulation factor VII): 2020 nM; IC50 (Coagulation factor XII): > 30000 nM; IC50 (Trypsin): 2020 nM
33 | CC(C)[C@@H](NC1CCCCC1)C(=O)N1CCC[C@H]1C(=O)NCc1ccc2c(N)nccc2c1 | 7 | 234 | –
34 | Nc1ncnc2oc(CNC(=O)[C@@H]3CCCN3C(=O)[C@@H](CC3CCCCC3)NC3CCCCC3)cc12 | – | – | inhibition (Coagulation factor XI [1]): 8%
35 | CCS(=O)(=O)N[C@H](CC(C)C)C(=O)N1CCC[C@H]1C(=O)NCc1ccc2c(N)nccc2c1 | 24 | 794 | –
36 | CC(C)C[C@@H](NC1CCC1)C(=O)N1CCC[C@H]1C(=O)NCc1ccc2c(N)nccc2c1 | 44 | 3310 | –
37 | CC(C)C[C@@H](NC1CCCCC1)C(=O)N1C[C@@H](C)C[C@H]1C(=O)NCc1ccc2c(N)nccc2c1 | – | 2340 | –
38 | O=C(NCc1cc(Cl)ccc1-n1cnnn1)[C@@H]1CCCN1C(=O)[C@@H](CC1CCCCC1)NC1CCCCC1 | – | > 30000 | –
